Results reported in PubChem BioAssay AID1508591.

conditions: rat; liver microsomes; pH 7.4; 15.0 min; 1.0 µM

| half-life | Structure (SMILES) |
| --- | --- |
| 19 min | Fc1ccc(Nc2nc(-c3ccncc3Cl)nc3ccccc23)cc1F |
| > 30 min | COc1cc(-c2cn(C)c(=O)c3cnccc23)c(OC)cc1CN(C)C |
| > 30 min | O=C(c1ccc2ncccc2c1)N1CCc2c(nc3cc[nH]n3c2=O)C1 |
| > 30 min | CN(C)C(=O)C1CCN(c2nc(-c3ccc(Br)cc3)cs2)CC1 |
| 1.48 min | CC(=O)c1c(C)oc2ccc(N(C(=O)Oc3ccccc3)S(=O)(=O)c3ccccc3)cc12 |
| 7.1 min | Cc1cc(C(=O)Nc2nnc(C3CCCCC3)s2)cs1 |
| > 30 min | O=C(Nc1ccc(C(=O)N2CCCC2)cc1)c1ccccc1F |
| 1.5 min | CCOc1ccc(CCNC(=O)c2cc3sccc3n2Cc2ccccn2)cc1OCC |
| 4.12 min | CN(C)c1ccc(-c2csc(N3CCC(C(N)=O)CC3)n2)cc1 |
| 3.46 min | CC(C)Oc1cccc(C2CC(=O)Nc3cc4c(cc32)OCO4)c1 (configuration not stated) |
| > 30 min | Cc1cccc(C(=O)Nc2ccc(N3CCC(N4CCCCC4)CC3)c(C(=O)O)c2)c1 |
| 9.95 min | CN(C)c1ccccc1-c1csc(N2CCC(C(N)=O)CC2)n1 |
| 17.6 min | COc1cccc(C(=O)Nc2nc(-c3nnn(-c4cc(C)ccc4C)c3C)ns2)c1 |
| 20.7 min | COc1ccc(-n2cnc3cc(C(=O)N4CCCCC4)ccc32)cc1 |
| 5.92 min | CC(C)(C)c1ccc(S(=O)(=O)c2cnc(SCC(=O)Nc3ccc(F)c(Cl)c3)[nH]c2=O)cc1 |
| 4.2 min | O=C(Cc1ccc(Cl)c(Cl)c1)Nc1ccc(S(=O)(=O)Nc2ccccc2)cc1 |
| 2.06 min | C=C[C@]1(C)C[C@@H](OC(=O)CSC(C)(C)CNC(=O)[C@H](N)C(C)C)[C@]2(C)[C@H](C)CC[C@]3(CCC(=O)[C@H]32)[C@@H](C)[C@@H]1O |
| 25 min | COCCCNC(=O)c1cc2cc(S(=O)(=O)N(C)C)ccc2n1C |
| 24 min | Cc1ccnc(NC(=S)N2CCN(c3ccc(Cl)c(Cl)c3)CC2)c1 |
| 3.77 min | Cc1cc(SCC(=O)c2ccccc2)n2ncc(-c3ccccc3)c2n1 |

| half-life | Structure (SMILES) |
| --- | --- |
| 1.5 min | Cc1sc2ncnc(Sc3nnnn3-c3ccccc3)c2c1-c1ccccc1 |
| 1.71 min | O=C(NCCc1ccccc1)C1CCN(c2nc(-c3ccc(Br)cc3)cs2)CC1 |
| 1.9 min | O=C(NCc1ccc(N2CCCC2)nc1)c1cc(Cl)ccc1O |
| > 30 min | O=C(O)c1cccc(-n2cccc2/C=C2/NC(=O)N(c3cccc(Cl)c3)C2=O)c1 |
| > 30 min | CC(=O)c1ccc(N2CCN(S(=O)(=O)c3ccc4c(c3)CC(=O)N4)CC2)cc1 |
| 1.7 min | CC(CCc1ccc(O)cc1)NCc1ccc(Cl)cc1Cl (configuration not stated) |
| 13.9 min | CC(C)(C)c1ccc(-c2csc(N3CCC(C(N)=O)CC3)n2)cc1 |
| 1.7 min | Clc1ccccc1-c1nnc2sc(-c3ccc4c(c3)OCO4)nn12 |
| 8.6 min | Fc1cc(Nc2nc(-c3ccncc3)nc3ccccc23)ccc1-c1ccnc(C(F)(F)F)c1 |
| > 30 min | Cc1ccccc1C(=O)N1CCc2cc(-c3nc(NC(=O)Cc4ccc5ccccc5c4)sc3C)ccc21 |
| > 30 min | COc1cc(=O)n2c(c1C(=O)N(C)Cc1cscn1)CCN(C(=O)c1ccc(C)cc1C)CC2 |
| > 30 min | O=C1Nc2ccccc2/C1=C/c1cccc(C(=O)O)c1 |
| 4.8 min | CNc1nc(C#N)c(-c2cccc3ccccc23)o1 |
| 3.88 min | COC(=O)c1ccc(NS(=O)(=O)c2c(C)nc3sccn3c2=O)cc1 |
| 17.8 min | O=c1cc(/C=C/c2c(F)cccc2Cl)[nH]c2ccccc12 |
| 25.5 min | COc1cc(CNCCO)cc(Cl)c1OCc1ccc(Cl)cc1Cl |
| > 30 min | COc1ccc2[nH]c(=O)c(-c3noc(-c4ccccc4)n3)cc2c1 |
| > 30 min | Cc1ccc(-c2cc(C(=O)Nc3ccc(S(C)(=O)=O)cc3)c3ccccc3n2)cc1C |
| 0.9 min | Cc1csc2nc(-c3cccc(NC(=O)c4ccccc4Cl)c3)cn12 |
| 8.1 min | Cc1cnc(-c2ccccc2C(F)F)nc1NCc1ccc(-c2cccnc2)cc1 |

| Structure (SMILES) | half-life |
| --- | --- |
| CCC(CC)c1cc([C@H]2CN3CC[C@H]2C[C@@H]3CNS(=O)(=O)c2cccs2)nc(-c2ccncc2)n1 | > 30 min |
| Nc1c(C(=O)Nc2ccc(Cl)cc2)sc2nc3c(cc12)N1CCC3CC1 | 24 min |
